Source: patent US20100137445A1, “PLANT DISEASE CONTROL AGENT, AND PLANT DISEASE CONTROL METHOD” (SUMITOMO CHEMICAL COMPANY ,LIMITED, priority 2007, published 2010)
Read-outs that look alike come from different tables or passages of the source.

Test system: Phytophthora infestans
Assay type: in vivo
Details: tomato (Patio) seedling, foliage application
[1] = concentration of present compound 50 ppm
[2] = concentration of present compound 200 ppm

Compound	Control value [1]	Control value [2]
COc1ccc(C(=O)NCC2CCCCC2)cc1F [present compound 7, N-(cyclohexylmethyl)-3-fluoro-4-methoxybenzamide]	++ (40% or more and less than 60% of the lesion spot area on an untreated plant.)	++++ (Less than 20% of the lesion spot area on an untreated plant.)
COc1c(F)cc(C(=O)NCC2CCCCC2)cc1F [present compound 9, N-(cyclohexylmethyl)-3,5-difluoro-4-methoxybenzamide]	++++ (Less than 20% of the lesion spot area on an untreated plant.)	++++ (Less than 20% of the lesion spot area on an untreated plant.)
